Source: patent publication US9080197B2, “Equol level regulator” (priority 2005, dated 2015)
Like-named read-outs stand apart in the source and are kept apart here.

Columns and labels:
[1] = test system: feces of an equol producer (microorganisms having conversion ability to equol); experiment: Effect of carbohydrates upon equol production in anaerobic culture of feces of an equol producer with daidzein; format: cell-based; details: for activity at 1 %: Homo sapiens; for Equol concentration in medium: anaerobic, 37° C., no carbohydrate 18.1 μM; for daidzein added to the medium remaining: 100 μM of daidzein added
From the text: The equol concentration regulating activity of a carbohydrate can be checked by taking feces from a human having ability to produce equol (equol producer), adding daidzein serving as a substrate for equol and a target carbohydrate to the feces thus taken, culturing the feces, determining the concentration of equol in the culture medium and fitting the determined equol concentration to the following equation in comparison with the concentration of equol in a culture medium containing no carbohydrate. Equal concentration regulating activity (%)=(equol concentration of a culture medium containing a target carbohydrate)/(equol concentration of a culture medium containing no carbohydrate)×100
Fresh feces of an equol producer were suspended in a dilute solution (10-fold by volume) containing 0.00255% of KH2PO4, 0.00255% of K2HPO4, 0.006% of NaCl, […] of (NH4)2SO4, 0.000255% of CaCl2, 0.000255% of MgSO4, 0.1% of a 0.1% resazurin solution, 2.2% of an 8% Na2CO3 solution and 0.05% of L-cysteine hydrochloride by use of glass beads (φ 3 mm) in anaerobic conditions and solid matter was removed by use of sterilized gauze. The solution was centrifuged at 8,000 rpm for 10 minutes. Precipitation was suspended in a dilute solution in the same amount thereof. The solution was stored in a freezer at −30° C. as it was.
The feces dilution solution was thawed and centrifuged again. Precipitation was resuspended in PY medium (100-fold by volume) containing 0.5% of peptone, 0.5% of trypticase peptone, 1% of yeast extract, 0.00005% of hemin, 0.0001% of vitamin K1, 0.05% of L-cysteine hydrochloride, 0.0006% of KH2PO4, 0.0006% of K2HPO4, 0.0012% of NaCl, 0.0006% of (NH4)2SO4, 0.00006% of CaCl2 and 0.00006% of MgSO4. At this time, adonitol, arabinose, cellobiose, erythritol, fructo-oligosaccharide, fructose, galactose, glucose, glycogen, inositol, […], lactitol, lactose, lactulose, maltose, mannitol, mannose, melezitose, melibiose, raffinose, rhamnose, ribose, sorbitol, sorbose, sucrose, trehalose, xylose, or galacto-oligosaccharide was added so as to obtain a final concentration of 1%. Simultaneously, a series of sample containing no carbohydrate was prepared. To the series of samples, daidzein was added so as to obtain a final concentration of 100 μM. Culture was performed in completely anaerobic conditions at 37° C. for 16 hours. Note that culture was performed independently in four series. From the culture solution obtained, daidzein and equol were extracted and subjected to HPLC analysis. Note that inositol used herein is myo-inositol manufactured by SIGMA and glycogen was one derived from oyster and manufactured by SIGMA. Trehalose is D(+) trehalose (α,α form) manufactured by SIGMA and galacto-oligosaccharide is TOS-S, which is a mixture of 4′galactosyl-lactose and 6′galactosyl-lactose, and manufactured by Yakult Pharmaceutical Industry Co., Ltd. Fructo-oligosaccharide is a mixture of 1-kestose, nystose and 1-fructosyl-D-nystose manufactured by Wako Pure Chemical Industries, Ltd.
Daidzein and equol were extracted by the following manner. To 500 μL of a culture solution, 250 μL of diethyl ether was added and sufficiently stirred. The solution mixture was centrifuged at 2,000 rpm for 10 minutes to obtain a diethyl ether layer. The remaining aqueous layer was subjected to diethyl ether extraction performed in the same manner. The ether layers obtained in the two extraction operations were combined, concentrated and dried under spray of nitrogen gas flow at 40° C. The dried product was dissolved in 250 μL of 80% methanol and filtrated through a filter to obtain a sample to be subjected to measurement.
Furthermore, HPLC was performed in the following conditions:
Daidzein and equol standard products were poured in the aforementioned conditions to form calibration curves, respectively. In this manner, daidzein and equol concentrations of the samples were determined. […]

[2] = test system: microorganism having conversion ability to equol; experiment: Sub-culture of feces of an equol producer in PY medium containing a carbohydrate (selective medium), daidzein-to-equol conversion; format: cell-based; details: PY medium with 1% carbohydrate, daidzein 100 μM, 37° C., 16 hours per passage
Protocol: A feces suspension solution stored in the process according to Experimental Example 1 was added to 500 μL of PY mediums (to which adonitol or sorbose was previously added so as to obtain a final concentration of 1%; and distilled water was added in place of adonitol or sorbose for preparing a control sample) so as to obtain a content of 1/10 and daidzein was added so as to obtain a final concentration of 100 μM. Each medium was cultured at 37° C. for 16 hours in completely anaerobic conditions. After the culturing, an aliquot of 50 μL was taken from the culture solution and transferred to a fresh PY medium (500 μL). The remaining culture solution was subjected to daidzein and equol extraction. Thereafter, the same operation was repeatedly performed. In this manner, sub-culture was performed. At this time, a bacterial solution was appropriately subjected to gram staining and microscopically observed. The extraction of daidzein and equol, and quantification by HPLC were performed in accordance with the method described in Experimental Example 1. Each obtained daidzein and equol concentration was fitted into the following formula to obtain a daidzein-to-equol conversion rate. Note that culture was performed independently in three series to obtain an average conversion rate and standard deviation thereof. […]

[3] = relative to medium containing no carbohydrate (=100%), carbohydrate 1%, daidzein 100 μM, 16 hours, read-out: Equol concentration regulating activity
[4] = carbohydrate 1%, daidzein 100 μM, 16 hours
[5] = sample containing no carbohydrate taken as 100%, carbohydrate 1%, read-out: daidzein-to-equol conversion rate
[6] = relative to medium containing no carbohydrate (=100%), carbohydrate 1%, daidzein 100 μM, 16 hours
[7] = read-out: daidzein-to-equol conversion rate

| Compound | activity at 1 % [1, 3] | Equol concentration in medium [1, 4] | activity at 1 % [1, 5] | daidzein added to the medium remaining ([1]; carbohydrate 1%) | equol production [1, 4] | Equol concentration regulating activity [1, 6] | activity at 1 % [1, 7] | generation to which conversion ability to equol can be maintained in sub-culture [2] |
| --- | --- | --- | --- | --- | --- | --- | --- | --- |
| O=C[C@H](O)[C@@H](O)[C@H](O[C@@H]1O[C@H](CO)[C@@H](O)[C@H](O)[C@H]1O)[C@H](O)CO [Cellobiose, cellobiose] | 161% | 29.0 µM | – | – | – | – | – | – |
| OC[C@@H](O)[C@@H](O)[C@H](O)[C@@H](O)CO [Sorbitol, sorbitol] | 372% | 67.3 µM | ≥ 200% | – | – | – | – | – |
| OC[C@H]1O[C@@H](O[C@@H]2[C@@H](CO)OC(O)(CO)[C@H]2O)[C@H](O)[C@@H](O)[C@H]1O (mixture of isomers) [Lactulose, lactulose] | 8.1% | 1.5 µM | ≤ 50% | – | – | – | – | – |
| OC[C@H]1O[C@H](OC[C@H]2O[C@H](O[C@]3(CO)O[C@H](CO)[C@@H](O)[C@@H]3O)[C@H](O)[C@@H](O)[C@@H]2O)[C@H](O)[C@@H](O)[C@H]1O [Raffinose, raffinose] | 0% | 0.0 µM | ≤ 50% | mostly remained | not observed | – | – | – |
| OC[C@H]1O[C@H](OCC2O[C@@H](O)[C@H](O)[C@@H](O)[C@@H]2O)[C@H](O)[C@@H](O)[C@H]1O (stereo partly shown) [Melibiose, melibiose] | – | 4.5 µM | – | – | – | 24.8% | – | – |
| O=C[C@@H](O)[C@H](O)[C@H](O)CO [Arabinose, arabinose] | 391% | 70.6 µM | ≥ 200% | – | – | – | – | – |
| O=C[C@H](O)[C@@H](O)[C@@H](O)[C@H](O)CO [Galactose, galactose] | 240% | 65.0 µM | – | – | – | – | ≥ 200% | – |
| OC[C@H]1O[C@@H](O[C@H]2[C@H](O)[C@@H](O)C(O)O[C@@H]2CO)[C@H](O)[C@@H](O)[C@H]1O (stereo partly shown) [Lactose, lactose] | 0% | 0.0 µM | ≤ 50% | mostly remained | not observed | – | – | – |
| OC[C@H]1O[C@H](O[C@H]2O[C@H](CO)[C@@H](O)[C@H](O)[C@H]2O)[C@H](O)[C@@H](O)[C@@H]1O [Trehalose, D(+) trehalose] | 404% | 72.9 µM | ≥ 200% | – | – | – | – | – |
| O=C(CO)[C@@H](O)[C@H](O)[C@H](O)CO [Fructose, fructose] | 51.5% | 9.3 µM | – | – | – | – | – | – |
| O=C[C@H](O)[C@H](O)[C@H](O)CO [Ribose, ribose] | 330% | 59.5 µM | ≥ 200% | – | – | – | – | – |
| OC[C@H]1O[C@@](CO)(O[C@H]2O[C@H](CO)[C@@H](O)[C@H](O)[C@H]2O)[C@@H](O[C@H]2O[C@H](CO)[C@@H](O)[C@H](O)[C@H]2O)[C@@H]1O [Melezitose, melezitose] | 412% | 74.3 µM | ≥ 200% | – | – | – | – | – |
| O=C(CO)[C@H](O)[C@@H](O)[C@H](O)CO [Sorbose, sorbose] | 468% | 84.5 µM | – | – | – | – | ≥ 200% | 11th |
| OC[C@@H](O)[C@@H](O)[C@H](O)[C@H](O)CO [Mannitol, mannitol] | 182% | 32.9 µM | – | – | – | – | – | – |
| C[C@H](O)[C@H](O)[C@@H](O)[C@@H](O)C=O [Rhamnose, rhamnose] | 116% | 21.0 µM | – | – | – | – | – | – |
| OC[C@@H](O)[C@@H](O[C@@H]1O[C@H](CO)[C@H](O)[C@H](O)[C@H]1O)[C@H](O)[C@@H](O)CO [Lactitol, lactitol] | 459% | 82.9 µM | ≥ 200% | – | – | – | – | – |
| glycogen | – | 33.4 µM | – | – | – | 184.8% | – | – |
| OC[C@@H](O)[C@@H](O)CO [Erythritol, erythritol] | 214% | 38.7 µM | ≥ 200% | – | – | – | – | – |
| OC[C@H]1O[C@H](O[C@H]2[C@H](O)[C@@H](O)[C@H](O)O[C@@H]2CO)[C@H](O)[C@@H](O)[C@@H]1O [Maltose, maltose] | 58.5% | 10.6 µM | – | – | – | – | – | – |
| OC[C@H]1O[C@@](CO)(O[C@H]2O[C@H](CO)[C@@H](O)[C@H](O)[C@H]2O)[C@@H](O)[C@@H]1O [Sucrose, sucrose] | 0% | 0.0 µM | ≤ 50% | mostly remained | not observed | – | – | – |
| OC[C@@H](O)[C@@H](O)[C@@H](O)CO [Adonitol, adonitol] | 260% | 47.0 µM | ≥ 200% | – | – | – | – | 8th |
| O[C@H]1[C@H](O)[C@@H](O)[C@H](O)[C@@H](O)[C@H]1O [Inositol, myo-inositol] | 416% | 75.2 µM | ≥ 200% | – | – | – | – | – |
| O=C[C@H](O)[C@@H](O)[C@H](O)CO [Xylose, xylose] | 443% | 79.9 µM | ≥ 200% | – | – | – | – | – |
